Test results as given in patent publication US5556979A, “7-isoindolinyl-naphthyridone derivatives, compositions and anti-bacterial use thereof” (Bayer Aktiengesellschaft, priority 1992, dated 1996).
Values after ≈ are worked out from the molar mass of the structure shown.

Columns and labels:
Assay in all cases: Minimum inhibitory concentration (MIC), serial dilution on Iso-Sensitest agar
Assay type in all cases: cell-based
Micrococcus luteus 9341 = details: 37° C., about 20 hours
Experimental: (§1) The minimum inhibitory concentrations (MIC) were determined by means of serial dilution methods on Iso-Sensitest agar (Oxoid). For each substance to be tested, a series of agar plates was prepared which contained concentrations of the active compound which decreased by a double dilution on each occasion. The agar plates were inoculated with a Multipoint inoculator (Denley). For the inoculation, overnight cultures of the pathogens were used which had previously been diluted so that each inoculation spot contained about 10^4 colony-forming particles. The inoculated agar plates were incubated at 37° C. and the organism growth was recorded after about 20 hours. The MIC value (μg/ml) indicates the lowest concentration of active compound at which no growth could be detected with the naked eye.

Klebsiella sp. 8085 = details: 37° C., about 20 hours
Experimental: as §1

[1] = system: Enterobacter cloacae 2427; details: 37° C., about 20 hours
Experimental: as §1

[2] = system: Pseudomonas aeruginosa Walter; details: 37° C., about 20 hours
Experimental: as §1

Providencia sp. 12012 = details: 37° C., about 20 hours
Experimental: as §1

[3] = system: Staphylococcus aureus ICB 25701; details: ICB25701, 37° C., about 20 hours
Experimental: as §1

Morganella morg. 932 = details: 37° C., about 20 hours
Experimental: as §1

[4] = system: Staphylococcus aureus 1756; details: 37° C., about 20 hours
Experimental: as §1

[5] = system: Entercoccus faecalis 27 101; details: 37° C., about 20 hours
Experimental: as §1

E. coli Neumann = details: Escherichia coli, 37° C., about 20 hours
Experimental: as §1

| Structure (SMILES) | MIC (Micrococcus luteus 9341) [µg/mL] | MIC (Klebsiella sp. 8085) [µg/mL] | MIC [1] [µg/mL] | MIC [2] [µg/mL] | MIC (Providencia sp. 12012) [µg/mL] | MIC [3] [µg/mL] | MIC (Morganella morg. 932) [µg/mL] | MIC [4] [µg/mL] | MIC [5] [µg/mL] | MIC (E. coli Neumann) [µg/mL] |
| --- | --- | --- | --- | --- | --- | --- | --- | --- | --- | --- |
| N[C@@H]1CC=C[C@@H]2CN(c3c(F)cc4c(=O)c(C(=O)O)cn(C5CC5)c4c3Cl)C[C@@H]12 (relative stereo) [Example 12, (1'SR,2'RS,6'SR)-7-(2'-Amino-8'-azabicyclo[4.3.0]non-4'-en-8'-yl)-8-chloro-1-cyclopropyl-6-fluoro-1,4-dihydro-4-oxo-3-quinolinecarboxylic acid] | 0.015 (≈ 0.0359 µM) | 0.015 (≈ 0.0359 µM) | 0.015 (≈ 0.0359 µM) | 0.25 (≈ 0.598 µM) | 0.015 (≈ 0.0359 µM) | 0.015 (≈ 0.0359 µM) | 0.015 (≈ 0.0359 µM) | ≤ 0.0019 | 0.0078 (≈ 0.0187 µM) | 0.0039 (≈ 0.00933 µM) |
| N[C@@H]1CC=C[C@@H]2CN(c3cc4c(cc3F)c(=O)c(C(=O)O)cn4C3CC3)C[C@@H]12 (relative stereo) [Example 6, (1'SR,2'RS,6'SR)-7-(2'-amino-8'-azahicyclo[4.3.0]non-4'-en-8'-yl)-1-cyclopropyl-6-fluoro-1,4-dihydro-4-oxo-3-quinolinecarboxylic acid] | 0.06 (≈ 0.156 µM) | 0.03 (≈ 0.0782 µM) | 0.06 (≈ 0.156 µM) | 0.5 (≈ 1.3 µM) | 0.03 (≈ 0.0782 µM) | 0.125 (≈ 0.326 µM) | – | ≤ 0.015 | 0.03 (≈ 0.0782 µM) | ≤ 0.015 |
| N[C@@H]1CC=C[C@@H]2CN(c3c(F)cc4c(=O)c(C(=O)O)cn(C5CC5)c4c3F)C[C@@H]12 (relative stereo) [Example 4, (1'SR,2'RS,6'SR)-7-(2'-Amino-8'-azabicyclo[4.3.0]non-4'-en-8'-yl)-1-cyclopropyl-6,8-difluoro-1,4-hydro-4-oxo-3-quinolinecarboxylic acid] | 0.015 (≈ 0.0374 µM) | 0.015 (≈ 0.0374 µM) | 0.015 (≈ 0.0374 µM) | 0.25 (≈ 0.623 µM) | 0.015 (≈ 0.0374 µM) | 0.03 (≈ 0.0747 µM) | 0.015 (≈ 0.0374 µM) | 0.0039 (≈ 0.00972 µM) | 0.15 (≈ 0.374 µM) | 0.0078 (≈ 0.0194 µM) |
| Nc1cccc2c1CN(c1c(F)cc3c(=O)c(C(=O)O)cn(C4CC4)c3c1F)C2 [*, 7-(4-amino-1,3-dihydro-isoindol-2-yl)-1-cyclopropyl-6,8-difluoro-1,4-dihydro-4-oxo-3-quinolinecarboxylic acid, reference compound] | – | 4 (≈ 10.1 µM) | – | > 128 | 1 (≈ 2.52 µM) | – | 1 (≈ 2.52 µM) | 0.03 (≈ 0.0755 µM) | 0.5 (≈ 1.26 µM) | 0.5 (≈ 1.26 µM) |

Next, values leading:

| MIC (Micrococcus luteus 9341) [µg/mL] | MIC (Klebsiella sp. 8085) [µg/mL] | MIC [1] [µg/mL] | MIC [2] [µg/mL] | MIC (Providencia sp. 12012) [µg/mL] | MIC [3] [µg/mL] | MIC (Morganella morg. 932) [µg/mL] | MIC [4] [µg/mL] | MIC [5] [µg/mL] | MIC (E. coli Neumann) [µg/mL] | Structure (SMILES) |
| --- | --- | --- | --- | --- | --- | --- | --- | --- | --- | --- |
| 0.125 (≈ 0.301 µM) | 0.06 (≈ 0.144 µM) | 0.125 (≈ 0.301 µM) | 2 (≈ 4.81 µM) | 0.125 (≈ 0.301 µM) | 0.125 (≈ 0.301 µM) | 0.125 (≈ 0.301 µM) | ≤ 0.015 | 0.03 (≈ 0.0722 µM) | 0.03 (≈ 0.0722 µM) | CN[C@@H]1CC=C[C@@H]2CN(c3c(F)cc4c(=O)c(C(=O)O)cn(C5CC5)c4c3F)C[C@H]21 (relative stereo) [Example 22, (1'SR,2'RS,6'SR)-1-Cyclopropyl-6,8-difluoro-1,4-dihydro-7-(2'-methylamino-8'-azabicyclo[4.3-0]non-4'-en-8'-yl)-4-oxo-3-quinolinecarboxylic acid] |
| 0.06 (≈ 0.144 µM) | 0.03 (≈ 0.072 µM) | 0.03 (≈ 0.072 µM) | 1 (≈ 2.4 µM) | ≤ 0.015 | 0.03 (≈ 0.072 µM) | 0.03 (≈ 0.072 µM) | ≤ 0.015 | ≤ 0.015 | ≤ 0.015 | Nc1c(F)c(N2C[C@H]3[C@H](N)CC=C[C@@H]3C2)c(F)c2c1c(=O)c(C(=O)O)cn2C1CC1 (relative stereo) [Example 19, (1 'SR,2 'RS,6 'SR)-5-Amino-7-(2 '-amino-8 '-azabicyclo[4.3.0]non-4'-en-8'-yl)-1-cyclopropyl-6,8-difluoro-1,4-dihydro-4-oxo-3-quinolinecarboxylic acid] |
| 0.125 (≈ 0.313 µM) | 0.125 (≈ 0.313 µM) | 0.125 (≈ 0.313 µM) | 1 (≈ 2.5 µM) | 0.125 (≈ 0.313 µM) | 0.25 (≈ 0.626 µM) | 0.125 (≈ 0.313 µM) | 0.0078 (≈ 0.0195 µM) | 0.03 (≈ 0.0751 µM) | 0.03 (≈ 0.0751 µM) | CC1COc2c(N3C[C@H]4[C@H](N)CC=C[C@@H]4C3)c(F)cc3c(=O)c(C(=O)O)cn1c23 (stereo partly drawn) [Example 14, (1'SR,2'RS,6'SR)-10-(2'-Amino-8'-azabicyclo [4.3.0]non-4'-en-8'-yl)-9-fluoro-2,3-dihydro-3-methyl-7-oxo-7H-pyrido[1,2,3-de][1,4]benzoxazine-6-carboxylic acid] |
